Test results from PubChem BioAssay (NCI).
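Where inhibition never reached the appropriate level, the endpoint shown equals the highest concentration tested. Otherwise, values were interpolated linearly from a five-concentration, 48-hour dose response in 96-well plates. Here, GI50 denotes the concentration required for 50% inhibition of growth. The concentration for full growth arrest is given as TGI.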

What was measured:
Test in all cases: growth of human tumour cells (NCI), 48 h
[1] = test system: CAKI-1 renal
[2] = test system: K-562 leukemia
[3] = test system: MCF7 breast
[4] = test system: OVCAR-5 ovarian
[5] = test system: PC-3 prostate
[6] = test system: SF-295 CNS
[7] = test system: SF-539 CNS
[8] = test system: SK-MEL-5 melanoma
[9] = test system: SK-OV-3 ovarian
[10] = test system: UACC-257 melanoma

| Compound | GI50 [1] [nM] | TGI [1] [µM] | GI50 [2] [nM] | GI50 [3] [nM] | TGI [3] [µM] | GI50 [4] [µM] | TGI [4] [µM] | GI50 [5] [nM] | TGI [5] [µM] | GI50 [6] [nM] | TGI [6] [µM] | GI50 [7] [nM] | TGI [7] [µM] | GI50 [8] [nM] | TGI [8] [µM] | GI50 [9] [nM] | TGI [9] [µM] | GI50 [10] [nM] | TGI [10] [µM] | TGI [2] [µM] |
| --- | --- | --- | --- | --- | --- | --- | --- | --- | --- | --- | --- | --- | --- | --- | --- | --- | --- | --- | --- | --- |
| C[As](C)SCC(COC(=O)C(Cl)c1ccccc1)OC(=O)C(Cl)c1ccccc1 (configuration not stated) | 506 | 6.58 | 147 | 460 | 12.9 | 6.69 | > 37.2 | 740 | 19.4 | 7790 | 29.1 | 968 | 3.43 | 305 | 1.12 | 2630 | > 54.9 | 332 | 12.6 | – |
| Oc1ccc2ccccc2c1N=Nc1ccsc1 | – | > 100 | – | – | – | – | > 100 | – | – | – | > 100 | – | > 100 | – | > 100 | – | > 100 | – | > 100 | > 100 |
| CC(=O)C1=C(O)C=C2Oc3c(C(=O)/C=C/c4c(Cl)cccc4Cl)c(O)c(C)c(O)c3[C@]2(C)C1=O | 832 | 8.92 | 619 | 436 | 2.75 | 3.09 | 8.13 | 596 | 2.49 | 634 | 3.17 | 2190 | 4.91 | 1500 | 3.75 | 2570 | 7.4 | 2010 | 6.82 | 15 |
| C[C@]12CC/C(=N\O)C=C1CC[C@@H]1C2CC[C@@]2(C)C1CC[C@@H]2OC1CCCCO1 (some centres not stated) | – | > 10 | – | – | – | – | 29 | – | – | – | 35.8 | – | > 10 | – | > 100 | – | 36.3 | – | 34.6 | 46.3 |
| COc1c2ccoc2c(OC)c2oc(=O)ccc12 | – | > 100 | – | – | > 100 | – | > 100 | – | > 100 | – | > 100 | – | > 100 | – | > 100 | – | – | – | > 100 | > 100 |
| Cn1cnc([N+](=O)[O-])c1Sc1nccn1-c1cccc2ccccc12 | – | > 100 | – | – | – | – | 76.1 | – | – | – | > 100 | – | 90.2 | – | > 100 | – | > 100 | – | > 100 | > 100 |
| Nc1c(C(=O)Nc2cccc(F)c2)sc2nc3c(cc12)C(=O)CCC3 | 387 | > 100 | 160 | 304 | > 100 | 2.24 | > 100 | 347 | > 100 | 245 | > 80 | 287 | > 100 | 391 | > 100 | 436 | > 100 | – | – | > 75 |
| Cc1ccc(S(=O)(=O)NC2(C=O)CCCC3CCCCC32)cc1 (configuration not stated) | – | > 100 | – | – | – | – | – | – | – | – | – | – | > 100 | – | > 100 | – | > 100 | – | > 100 | > 100 |
| CC(=O)C1C(c2ccc(N(C)C)cc2)c2cc3c(cc2OC1(C)O)OCO3 (configuration not stated) | – | 87.8 | – | – | – | – | – | – | – | – | 71.2 | – | – | – | 93 | – | > 100 | – | > 100 | 63.5 |
| O=C(Nc1ccc(Cl)c(Cl)c1)Nc1c(Oc2ccc(Cl)c(Cl)c2)ccc(Cl)c1S(=O)(=O)O | – | – | 516 | 388 | > 100 | 4.09 | > 100 | 3590 | > 100 | – | – | – | – | 1330 | 3.11 | – | – | – | – | > 100 |
| COC(=O)c1cc(O)c2cc3c(cc2c1-c1cc(OC)c(OC)c(OC)c1)OCO3 | 344 | 5.46 | – | 459 | > 100 | 50.2 | > 100 | 2010 | > 100 | 536 | 5.03 | 3340 | > 100 | 891 | > 100 | 3020 | > 100 | 1800 | > 100 | – |
| CN1C(=O)C2C3C=C4c5ccccc5N(c5ccccc5)C4(C2C1=O)[C@H]1C(=O)N(C)C(=O)[C@@H]31 (some centres not stated) | – | – | – | – | – | – | > 100 | – | – | – | > 100 | – | – | – | – | – | > 100 | – | > 100 | > 100 |
| O=c1c(Br)cc2nc3ccccc3sc-2c1Br | – | > 100 | – | – | – | – | > 100 | – | – | – | > 100 | – | > 100 | – | > 100 | – | > 100 | – | > 85.4 | 55.5 |
| CC(=O)OC[C@@H](COC(=O)/C=C/c1ccc(O)cc1)OC1OC(CO)C(O)C(O)C1O (some centres not stated) | – | > 100 | – | – | – | – | > 100 | – | – | – | > 100 | – | > 100 | – | > 100 | – | > 100 | – | > 100 | > 100 |
| CCOC(=O)N1CCC(=O)C(CNC23CC4CC(CC(C4)C2)C3)C1 (configuration not stated) | – | – | – | – | – | – | > 100 | – | – | – | > 100 | – | > 100 | – | > 100 | – | > 100 | – | 42.4 | 31.2 |
| CC12CCC3(OCCO3)C(OC(=O)c3ccccc3)=C1CCC21OCCO1 (configuration not stated) | – | > 100 | – | – | – | – | > 100 | – | – | – | > 100 | – | > 100 | – | > 100 | – | > 100 | – | > 100 | – |
| C=C1CCC2C3(C)COC(c4ccccc4)OC3CCC2(C)C1/C=C/C1=CCOC1=O (configuration not stated) | – | – | 2310 | 1960 | 7.59 | 9.58 | 22 | 4750 | 51.3 | 14100 | 51.9 | 8710 | 21.2 | 8670 | 21.6 | 11500 | > 100 | 63400 | > 100 | > 100 |
| O=C(O)CCC(N=Cc1nc(-c2ccccc2)oc1O)C(=O)O (configuration not stated) | – | > 100 | – | – | – | – | > 100 | – | – | – | > 100 | – | > 100 | – | > 100 | – | > 100 | – | > 100 | > 100 |
| O=C(c1ccccc1)C1OC1c1ccc([N+](=O)[O-])cc1 (configuration not stated) | 2310 | 6.56 | – | 3160 | > 100 | 19.6 | 56.9 | 9900 | > 100 | 4760 | 46 | 10200 | 76.8 | 3810 | 16.7 | 29100 | 90.3 | 16700 | > 100 | – |
| COc1ccc2ccccc2c1C1NC(=O)c2ccccc2N1 (configuration not stated) | – | > 85.2 | – | – | 29.4 | – | > 31.3 | – | 3.19 | – | – | – | 5.78 | – | 6.31 | – | 9.29 | – | > 100 | – |
